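Compound exposure: 48 hours, 5 concentrations, 96-well plates. GI50 = concentration required for 50% inhibition of growth.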 Calls of active or inactive are those of the source. No stated cut-off is given here; in the data, active = GI50 up to about 1.1 µM and inactive = higher.
What was measured:
Assay in all cases: growth of human tumour cells (NCI), 48 h
[1] = system: SNB-75
[2] = system: NCI-H522
[3] = system: Hs-578T
[4] = system: CCRF-CEM
[5] = system: OVCAR-3
[6] = system: UACC-257
[7] = system: UO-31
[8] = system: OVCAR-5
[9] = system: OVCAR-8
[10] = system: SN12C
[11] = system: RXF 393
[12] = system: HCT-116
[13] = system: MDA-MB-435
[14] = system: SK-MEL-28
[15] = system: NCI-H23
[16] = system: PC-3
[17] = system: ACHN
[18] = system: BT-549
[19] = system: K562
[20] = system: SF-295

Measured: GI50

N=C(N)/N=C(\N)Nc1ccc(C(=O)O)cc1
inactive: [1] > 100 µM | [2] > 100 µM | [3] > 100 µM | [4] > 100 µM | [5] > 100 µM | [6] > 100 µM | [7] > 100 µM | [8] > 100 µM | [9] > 100 µM | [10] 43.1 µM | [11] > 100 µM | [12] > 100 µM | [13] > 100 µM | [14] > 100 µM | [15] > 100 µM | [16] > 100 µM | [17] > 100 µM | [18] > 100 µM | [19] > 100 µM | [20] > 100 µM

O=S1(=O)c2ccccc2C(=NO)c2ccccc21
inactive: [1] > 100 µM | [2] 37.1 µM | [3] 63.8 µM | [4] 47.1 µM | [5] 39.7 µM | [6] > 100 µM | [7] 28.2 µM | [8] > 100 µM | [9] > 100 µM | [10] 92.9 µM | [11] 24.8 µM | [12] > 100 µM | [13] > 100 µM | [14] > 100 µM | [15] > 100 µM | [16] 43.4 µM | [17] > 100 µM | [18] 59.2 µM | [19] 68.2 µM | [20] > 100 µM

— ChEMBL document CHEMBL1201862, “PubChem BioAssay data set” (2004)
